Measurements from PMC10861852, “Loss of activation by GABA in vertebrate delta ionotropic glutamate receptors” (Proceedings of the National Academy of Sciences of the …, 2024).

Experiments:
AcaGluD^Rat^NTDlink = test: Two-electrode voltage clamp, ligand-gated currents in chimera-expressing oocytes; settings: relative ligand-gated current amplitude, n = 3
Text: (§1) To answer this, we measured ligand-gated currents in two chimeric AcaGluD constructs in which the NTD was replaced with that of RatGluD2: one retaining the NTD-LBD linker of AcaGluD, “AcaGluD^Rat^NTD”; and the other with the NTD-LBD linker of RatGluD2, “AcaGluD^Rat^NTDlink” (Fig. 4 A and B and SI Appendix, Supporting text).

AcaGluD^Rat^NTD = test: as above; settings: relative ligand-gated current amplitude, n = 3
Text: as §1

RatGluD2^Lc^-10x = target: T1, RatGluD2^Lc^-10x (Rattus norvegicus, UniProt Q63226, A654T/A686S/D753Q/K694R/N720P/N763K/P806D/Q786M/R787V/S544G/Y613F); test: Two-electrode voltage clamp, responses to ligands in mutant-expressing oocytes; type: cell-based; settings: ligands 30 mM
T1 construct: expressed in transfected cells; host or cells: Xenopus laevis oocytes injected with mRNA

AcaGluD = target: T2, AcaGluD (Acanthaster planci, UniProt A0A8B7XXR5); test: Two-electrode voltage clamp, ligand-gated currents in oocytes; type: cell-based
T2 sequence (A0A8B7XXR5 24-958): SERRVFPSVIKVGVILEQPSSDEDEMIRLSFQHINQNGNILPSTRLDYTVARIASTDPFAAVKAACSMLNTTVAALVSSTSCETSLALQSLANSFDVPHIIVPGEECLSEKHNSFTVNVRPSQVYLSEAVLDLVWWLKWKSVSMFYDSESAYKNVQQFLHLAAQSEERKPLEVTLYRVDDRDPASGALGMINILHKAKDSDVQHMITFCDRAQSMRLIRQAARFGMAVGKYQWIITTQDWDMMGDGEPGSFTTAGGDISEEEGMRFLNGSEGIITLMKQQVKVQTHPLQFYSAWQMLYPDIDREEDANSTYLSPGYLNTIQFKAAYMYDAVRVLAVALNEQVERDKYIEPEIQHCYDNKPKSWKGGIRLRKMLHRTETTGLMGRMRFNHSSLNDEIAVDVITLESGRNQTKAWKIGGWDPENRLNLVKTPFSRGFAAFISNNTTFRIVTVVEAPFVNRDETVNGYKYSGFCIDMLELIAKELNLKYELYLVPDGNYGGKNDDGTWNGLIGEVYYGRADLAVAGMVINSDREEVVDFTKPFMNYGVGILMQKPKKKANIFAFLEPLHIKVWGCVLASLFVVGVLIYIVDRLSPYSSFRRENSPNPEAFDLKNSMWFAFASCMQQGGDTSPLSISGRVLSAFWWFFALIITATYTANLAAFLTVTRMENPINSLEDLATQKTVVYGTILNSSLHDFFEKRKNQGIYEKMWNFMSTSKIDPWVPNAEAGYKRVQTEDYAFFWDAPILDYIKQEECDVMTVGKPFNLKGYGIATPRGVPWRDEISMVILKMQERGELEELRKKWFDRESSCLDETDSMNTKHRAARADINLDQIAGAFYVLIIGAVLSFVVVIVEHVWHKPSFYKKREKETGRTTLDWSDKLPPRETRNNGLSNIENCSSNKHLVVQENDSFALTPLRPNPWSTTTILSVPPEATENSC

RatGluD2^Lc^-9x = target: T3, RatGluD2^Lc^-9x (Rattus norvegicus, UniProt Q63226, A654T/A686S/D753Q/K694R/N720P/N763K/P806D/Q786M/R787V/Y613F); test: Two-electrode voltage clamp, responses to ligands in mutant-expressing oocytes; type: cell-based; settings: ligands 30 mM; receptor inactive at rest
T3 construct: expressed in transfected cells; host or cells: Xenopus laevis oocytes injected with mRNA

DioGluD = test: Two-electrode voltage clamp, ligand-gated currents in oocytes; type: cell-based, Diopisthoporus longitubus; settings: wild-type
V806R mutant AcaGluD = test: Two-electrode voltage clamp, ligand-gated currents in mutant-expressing oocytes
Text: (§2) As the long CTD is implicated little in channel gating and more in expression and trafficking of iGluRs ([3]), we excluded it from this analysis. […] (Two of the mutants incorporated substitutions of two adjacent residues for efficiency.)

M805Q mutant AcaGluD = test: as above
Text: as §2

Q772D mutant AcaGluD = test: as above
Text: as §2

K782N mutant AcaGluD = test: as above
Text: as §2

RatGluD1^AC = target: T4, RatGluD1^AC (Rattus norvegicus, UniProt Q62640, A654C); test: Two-electrode voltage clamp, inhibition of constitutive current in oocytes; type: cell-based; settings: A654C mutant receptor, n = 10
T4 construct: expressed in transfected cells; host or cells: Xenopus laevis oocytes injected with mRNA
T4 sequence (Q62640 21-1009 A654C): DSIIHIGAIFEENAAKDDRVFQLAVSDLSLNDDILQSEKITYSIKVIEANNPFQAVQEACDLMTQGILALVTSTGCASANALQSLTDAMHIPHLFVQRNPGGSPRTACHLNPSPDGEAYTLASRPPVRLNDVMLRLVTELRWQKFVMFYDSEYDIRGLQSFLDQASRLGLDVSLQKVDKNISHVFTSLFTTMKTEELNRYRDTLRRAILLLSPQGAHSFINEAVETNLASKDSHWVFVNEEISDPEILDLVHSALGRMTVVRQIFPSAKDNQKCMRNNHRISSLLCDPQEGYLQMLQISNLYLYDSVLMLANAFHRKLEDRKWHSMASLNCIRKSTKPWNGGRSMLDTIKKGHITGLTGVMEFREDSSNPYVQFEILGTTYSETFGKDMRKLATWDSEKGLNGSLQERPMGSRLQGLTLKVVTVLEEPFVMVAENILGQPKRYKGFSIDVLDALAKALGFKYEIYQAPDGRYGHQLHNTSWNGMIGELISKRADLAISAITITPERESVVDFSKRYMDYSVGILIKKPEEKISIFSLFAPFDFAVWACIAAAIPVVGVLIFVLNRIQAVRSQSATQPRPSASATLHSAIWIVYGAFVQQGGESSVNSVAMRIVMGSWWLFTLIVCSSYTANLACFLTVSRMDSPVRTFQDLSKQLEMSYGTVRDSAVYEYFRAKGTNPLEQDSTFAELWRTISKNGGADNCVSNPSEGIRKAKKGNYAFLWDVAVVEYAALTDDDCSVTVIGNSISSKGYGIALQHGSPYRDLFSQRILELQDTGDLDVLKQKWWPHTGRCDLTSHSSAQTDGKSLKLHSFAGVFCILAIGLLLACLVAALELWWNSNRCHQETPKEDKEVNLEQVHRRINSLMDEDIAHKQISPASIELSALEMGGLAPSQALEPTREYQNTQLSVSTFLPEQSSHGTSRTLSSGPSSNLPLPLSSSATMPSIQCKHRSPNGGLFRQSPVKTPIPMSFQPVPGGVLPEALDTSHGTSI

T1 sequence (Q63226 24-1007 S544G/Y613F/A654T/A686S/K694R/N720P/D753Q/N763K/Q786M/R787V/P806D): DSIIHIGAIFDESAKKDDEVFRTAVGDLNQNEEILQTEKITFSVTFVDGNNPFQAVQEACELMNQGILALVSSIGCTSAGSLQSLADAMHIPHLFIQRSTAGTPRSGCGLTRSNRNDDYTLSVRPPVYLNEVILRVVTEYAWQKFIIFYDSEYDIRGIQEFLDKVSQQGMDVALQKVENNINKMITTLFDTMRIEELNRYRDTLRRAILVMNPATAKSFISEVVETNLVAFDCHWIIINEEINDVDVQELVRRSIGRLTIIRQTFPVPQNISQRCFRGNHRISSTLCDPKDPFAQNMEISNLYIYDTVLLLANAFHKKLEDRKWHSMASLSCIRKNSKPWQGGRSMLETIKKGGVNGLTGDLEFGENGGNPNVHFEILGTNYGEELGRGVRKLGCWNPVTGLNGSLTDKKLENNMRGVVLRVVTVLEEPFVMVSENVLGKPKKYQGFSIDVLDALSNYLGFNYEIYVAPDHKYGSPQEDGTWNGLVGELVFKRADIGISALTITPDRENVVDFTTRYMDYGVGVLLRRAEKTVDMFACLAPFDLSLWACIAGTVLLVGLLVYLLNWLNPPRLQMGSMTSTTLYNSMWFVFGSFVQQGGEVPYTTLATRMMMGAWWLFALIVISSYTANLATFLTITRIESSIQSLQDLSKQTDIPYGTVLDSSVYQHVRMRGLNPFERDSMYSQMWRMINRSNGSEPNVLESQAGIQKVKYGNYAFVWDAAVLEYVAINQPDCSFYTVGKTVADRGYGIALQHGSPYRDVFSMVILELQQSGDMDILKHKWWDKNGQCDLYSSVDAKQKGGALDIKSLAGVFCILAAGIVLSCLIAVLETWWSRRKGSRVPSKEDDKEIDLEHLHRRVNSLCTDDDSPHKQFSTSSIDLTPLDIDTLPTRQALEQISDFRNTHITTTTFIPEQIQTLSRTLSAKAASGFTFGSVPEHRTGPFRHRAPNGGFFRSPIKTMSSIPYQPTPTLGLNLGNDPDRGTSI
T3 sequence (Q63226 24-1007 Y613F/A654T/A686S/K694R/N720P/D753Q/N763K/Q786M/R787V/P806D): as the sequence (Q63226 24-1007 S544G/Y613F/A654T/A686S/K694R/N720P/D753Q/N763K/Q786M/R787V/P806D) above, with G521S counted along it

SMILES: N[C@H](CO)C(=O)O [D-serine]
- relative efficacy (AcaGluD^Rat^NTDlink): 20 ± 3%
- relative efficacy (AcaGluD^Rat^NTD): 5 ± 1%
- current response to ligand (RatGluD2^Lc^-10x): showed inward currents
- relative efficacy (AcaGluD; WT, relative ligand-gated current amplitude, n = 7): 12 ± 3%

SMILES: NCC(=O)O [glycine]
- current response to ligand (RatGluD2^Lc^-9x): conducted inward currents
- current response to ligand (RatGluD2^Lc^-10x): showed inward currents
- EC50 (AcaGluD; 0 Ca2+, n = 4): 2 ± 0.1 mM
- maximum ligand-gated current amplitude (AcaGluD; in the presence of 1.8 mM Ca2+): 0.33 ± 0.01 µA
- EC50 (AcaGluD; ligand-gated current, 1.8 mM Ca2+ (regular bath solution)): 2 ± 0.1 mM
- maximum ligand-gated current amplitude (AcaGluD; nominally Ca2+-free solutions): 0.08 ± 0.01 µA

SMILES: NCCCC(=O)O [GABA, γ-aminobutyric acid]
- ligand-elicited currents (DioGluD): the only ligand that elicited currents
- maximum GABA-gated current amplitude (V806R mutant AcaGluD): less than 1 μA
- maximum GABA-gated current amplitude (M805Q mutant AcaGluD): less than 1 μA
- maximum GABA-gated current amplitude (Q772D mutant AcaGluD): less than 1 μA
- maximum GABA-gated current amplitude (K782N mutant AcaGluD): less than 1 μA
- inactivation of constitutive current relative to D-serine (RatGluD1^AC): 86 ± 5%
- EC50 (AcaGluD; 0 Ca2+, n = 5): 0.005 ± 0.0006 mM
- maximum GABA-gated current amplitude (AcaGluD; WT, mutant comparison (Fig. 5B), n = 4): 8.2 ± 1.1 μA
- maximum ligand-gated current amplitude (AcaGluD; in the presence of 1.8 mM Ca2+): 6.0 ± 1.0 µA
- EC50 (AcaGluD; ligand-gated current, 1.8 mM Ca2+ (regular bath solution), n = 5): 0.013 ± 0.003 mM
- maximum ligand-gated current amplitude (AcaGluD; nominally Ca2+-free solutions): 0.42 ± 0.13 µA
